According to patent publication US7803801B2, “Aminopyridine compounds having Syk inhibitory activity” (Japan Tobacco, Inc., priority 2005, dated 2010):
Counter-ions that a name gives are not always drawn. Like-named read-outs stand apart in the source and are kept apart here.

Assays:
[1] = test system: cultured human mast cells; experiment: Degranulation inhibition test using cultured human mast cells (IgE cross-linking, β-Hexosaminidase release); assay type: cell-based; settings: Mast cell, cultured human mast cells, read-out: human degranulation ave. IC50
Method in brief: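 CD34+ cord-blood cells cultured ≥8 weeks with SCF/IL-6/IL-3; FcεRI primed 5 days with rhIL-4 (1 ng/mL) and hIgE (0.5 μg/mL). Compound (0.1% DMSO) preincubated 10 min at 37 °C, then anti-IgE (final 10 μg/mL) 30 min; released β-hexosaminidase read at 405 nm versus total lysate, IC50 (M).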

[2] = target: GST-Syk Full Protein (human) (Homo sapiens, UniProt P43405); experiment: Syk kinase inhibition test (HTRF method); assay type: biochemical
Method in brief: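 Human GST-Syk full-length (6.4 nM) phosphorylated biotin-EDPDYEWPSA-NH2 (250 nM) with 100 μM ATP in HEPES pH 7.0/MgCl2 buffer, 2% DMSO, 30 min at room temperature. EDTA stop, then HTRF detection (streptavidin-XL665, Eu anti-phosphotyrosine) after 1 h; 665/620 ratio read.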

[3] = anti-hIgE stimulation, β-Hexosaminidase index, average
[4] = HTRF, 100 μM ATP, 30 min room temperature, average, read-out: sykHTRF ave IC50
[5] = Tables 1-x, compounds A, read-out: sykHTRF ave IC50
[6] = Tables 2-x, thiophene compounds B
[7] = Tables 2-x, thiophene compounds B, read-out: sykHTRK ave IC50

SMILES: C[C@H](N)c1ncc(-c2cccc(Nc3cc(-c4ccncc4)ccn3)n2)s1 [Compound A-75, N-{6-[2-((S)-1-aminoethyl)thiazol-5-yl]pyridin-2-yl}-N-([4,4′]bipyridinyl-2-yl)amine]
- IC50 [1, 3]: 0.1 to 1 µM
- IC50 [2, 4]: < 0.1 µM

SMILES: Cc1ccnc(Nc2cccc(-c3cnc(C(=O)C(C)C)s3)n2)c1 [Compound A-83]
- IC50 [1, 3]: > 1 µM
- IC50 [2, 4]: 0.1 to 1 µM

SMILES: Cc1ccnc(Nc2cccc(-c3cnc(CCC4CCNCC4)s3)n2)c1 [Compound A-258, N-(4-methylpyridin-2-yl)-N-{6-[2-(2-piperidin-4-ylethyl)thiazol-5-yl]pyridin-2-yl}amine]
- IC50 [1, 3]: > 1 µM
- IC50 [2, 4]: < 0.1 µM

SMILES: CC(=O)N[C@@H](CCC(=O)O)c1ncc(-c2cccc(Nc3cc(C)ccn3)n2)s1 [Compound A-103]
- IC50 [1, 3]: > 1 µM
- IC50 [2, 4]: 0.1 to 1 µM

SMILES: CC(=O)Nc1nc(C)c(-c2cncc(Nc3cc(C)ccn3)n2)s1 [Compound A-21, N-{4-methyl-5-[6-(4-methylpyridin-2-ylamino)pyrazin-2-yl]thiazol-2-yl}acetamide]
- IC50 [1, 3]: 0.1 to 1 µM
- IC50 [2, 4]: < 0.1 µM

SMILES: Cc1ccnc(Nc2cccc(-c3cnc([C@H](C)O)s3)n2)c1 [Compound A-26, (S)-1-{5-[6-(4-methylpyridin-2-ylamino)pyridin-2-yl]thiazol-2-yl}ethanol]
- IC50 [1, 3]: 0.1 to 1 µM
- IC50 [2, 4]: < 0.1 µM

SMILES: Cc1ccnc(Nc2cccc(-c3cnc(CCc4ccc(C(=O)NCCO)cc4)s3)n2)c1 [Compound A-162, N-(2-hydroxyethyl)-4-(2-{5-[6-(4-methylpyridin-2-ylamino)pyridin-2-yl]thiazol-2-yl}ethyl)benzamide]
- IC50 [1, 3]: 0.1 to 1 µM
- IC50 [2, 4]: < 0.1 µM

SMILES: Cc1ccnc(Nc2cccc(-c3cnc(N4CCC(C(=O)O)CC4)s3)n2)c1 [Compound A-2, 1-{5-[6-(4-methylpyridin-2-ylamino)pyridin-2-yl]thiazol-2-yl}piperidine-4-carboxylic acid]
- IC50 [1, 3]: > 1 µM
- IC50 [2, 4]: < 0.1 µM

SMILES: COc1ccc(C[C@H](NC(C)=O)c2ncc(-c3cccc(Nc4cc(C)ccn4)n3)s2)cc1 [Compound A-136]
- IC50 [1, 3]: > 1 µM
- IC50 [2, 4]: 0.1 to 1 µM

SMILES: O=C(O)CC1CCN(c2ncc(-c3cccc(Nc4ccccn4)n3)s2)CC1 [Compound A-573, (1-{5-[6-(pyridin-2-ylamino)pyridin-2-yl]thiazol-2-yl}piperidin-4-yl)acetic acid dihydrochloride]
- IC50 ([1]; Tables 1-x, compounds A): > 1 µM
- IC50 [2, 5]: < 0.1 µM

SMILES: CC(=O)N[C@H](c1ccc(O)cc1)c1ncc(-c2cccc(Nc3cc(C)ccn3)n2)s1 [Compound A-161, N—((R)-(4-hydroxyphenyl)-{5-[6-(4-methylpyridin-2-ylamino)pyridin-2-yl]thiazol-2-yl}methyl)acetamide]
- IC50 [1, 3]: 0.1 to 1 µM
- IC50 [2, 4]: < 0.1 µM

SMILES: Cc1ccnc(Nc2cccc(-c3cnc(N4CCCC(C(=O)NCCO)C4)s3)n2)c1 (stereo not shown) [Compound A-478, N-(2-hydroxyethyl)-1-{5-[6-(4-methylpyridin-2-ylamino)pyridin-2-yl]thiazol-2-yl}piperidine-3-carboxamide]
- IC50 ([1]; Tables 1-x, compounds A): 0.1 to 1 µM
- IC50 [2, 5]: < 0.1 µM

SMILES: Cc1ccnc(Nc2cccc(-c3cnc(CN(C)C(=O)C4CC4)s3)n2)c1 [Compound A-358]
- IC50 [1, 3]: 0.1 to 1 µM
- IC50 [2, 4]: 0.1 to 1 µM

SMILES: Cc1ccnc(Nc2cccc(-c3cnc(N4C[C@@H](O)[C@@H](O)C4)s3)n2)c1 [Compound A-423, (3R,4S)-1-{5-[6-(4-methylpyridin-2-ylamino)pyridin-2-yl]thiazol-2-yl}pyrrolidine-3,4-diol]
- IC50 ([1]; Tables 1-x, compounds A): 0.1 to 1 µM
- IC50 [2, 5]: < 0.1 µM

SMILES: Cc1ccnc(Nc2cccc(-c3cnc(N4CCN(CC(=O)O)CC4)s3)n2)c1 [Compound A-589, (4-{5-[6-(4-methylpyridin-2-ylamino)pyridin-2-yl]thiazol-2-yl}piperazin-1-yl)acetic acid dihydrochloride]
- IC50 ([1]; Tables 1-x, compounds A): > 1 µM
- IC50 [2, 5]: < 0.1 µM

SMILES: Cc1ccnc(Nc2cccc(-c3cnc([C@@H]4COC(=O)N4CC(=O)N(C)C)s3)n2)c1 [Compound A-408]
- IC50 ([1]; Tables 1-x, compounds A): > 1 µM
- IC50 [2, 5]: > 1 µM

SMILES: Cc1ccnc(Nc2cccc(-c3cnc(N4CCC[C@@H](CO)C4)s3)n2)c1 [Compound A-532, ((R)-1-{5-[6-(4-methylpyridin-2-ylamino)pyridin-2-yl]thiazol-2-yl}piperidin-3-yl)methanol]
- IC50 ([1]; Tables 1-x, compounds A): < 0.1 µM
- IC50 [2, 5]: < 0.1 µM

SMILES: Cc1ccnc(Nc2cccc(-c3cnc(N4CCC(CNC(=O)CO)CC4)s3)n2)c1 [Compound A-486, 2-hydroxy-N-(1-{5-[6-(4-methylpyridin-2-ylamino)pyridin-2-yl]thiazol-2-yl}piperidin-4-ylmethyl)acetamide]
- IC50 ([1]; Tables 1-x, compounds A): 0.1 to 1 µM
- IC50 [2, 5]: < 0.1 µM

SMILES: CC(=O)c1ccc(-c2cccc(Nc3cc(CO)ccn3)n2)s1 [Compound B-96]
- IC50 [1, 6]: > 1 µM
- IC50 [2, 7]: 0.1 to 1 µM

SMILES: COCCNC(=O)C1CCN(c2ncc(-c3cccc(Nc4cc(C)ccn4)n3)s2)CC1 [Compound A-435]
- IC50 ([1]; Tables 1-x, compounds A): > 1 µM
- IC50 [2, 5]: 0.1 to 1 µM

SMILES: COc1ccc(C[C@H](N)c2ncc(-c3cccc(Nc4cc(C)ccn4)n3)s2)cc1 [Compound A-134]
- IC50 [1, 3]: > 1 µM
- IC50 [2, 4]: 0.1 to 1 µM

SMILES: Cc1ccnc(Nc2cccc(-c3cnc(CCCCCNC(=O)OC(C)(C)C)s3)n2)c1 [Compound A-127]
- IC50 [1, 3]: > 1 µM
- IC50 [2, 4]: > 1 µM

SMILES: Cc1ccnc(Nc2cccc(-c3cnc(N4CCC(C)(C(N)=O)CC4)s3)n2)c1 [Compound A-500, 4-methyl-1-{5-[6-(4-methylpyridin-2-ylamino)pyridin-2-yl]thiazol-2-yl}piperidine-4-carboxamide]
- IC50 ([1]; Tables 1-x, compounds A): 0.1 to 1 µM
- IC50 [2, 5]: < 0.1 µM

SMILES: Cc1ccnc(Nc2cccc(-c3ccc(CC(C)O)s3)n2)c1 (stereo not shown) [Compound B-71]
- IC50 [1, 6]: 0.1 to 1 µM
- IC50 [2, 7]: 0.1 to 1 µM

SMILES: Cc1ccnc(Nc2cccc(-c3cnc(CC(=O)OC(C)(C)C)s3)n2)c1 [Compound A-222]
- IC50 [1, 3]: > 1 µM
- IC50 [2, 4]: 0.1 to 1 µM

SMILES: Cc1ccnc(Nc2cccc(-c3cnc(N(C)Cc4nc(C(=O)O)cs4)s3)n2)c1 [Compound A-609, 2-[(N-methyl-N-{5-[6-(4-methylpyridin-2-ylamino)pyridin-2-yl]thiazol-2-yl}amino)methyl]thiazole-4-carboxylic acid]
- IC50 ([1]; Tables 1-x, compounds A): > 1 µM
- IC50 [2, 5]: < 0.1 µM

SMILES: COC(=O)c1ccnc(Nc2cccc(-c3ccc(C(C)=O)s3)n2)c1 [Compound B-53, 2-[6-(5-acetylthiophen-2-yl)pyridin-2-ylamino]isonicotinic acid methyl ester]
- IC50 [1, 6]: > 1 µM
- IC50 [2, 7]: < 0.1 µM

SMILES: Cc1ccnc(Nc2cccc(-c3ccc(C(=NO)C(C)C)s3)n2)c1 [Compound B-50]
- IC50 [1, 6]: > 1 µM
- IC50 [2, 7]: 0.1 to 1 µM

SMILES: Cc1ccnc(Nc2cccc(-c3cnc([C@@H](N)C(C)C)s3)n2)c1 [Compound A-37]
- IC50 [1, 3]: > 1 µM
- IC50 [2, 4]: 0.1 to 1 µM

SMILES: Cc1ccnc(Nc2cccc(-c3cnc(N4CC[C@@H](NS(C)(=O)=O)C4)s3)n2)c1 [Compound A-489, N—((R)-1-{5-[6-(4-methylpyridin-2-ylamino)pyridin-2-yl]thiazol-2-yl}pyrrolidin-3-yl)methanesulfonamide]
- IC50 ([1]; Tables 1-x, compounds A): 0.1 to 1 µM
- IC50 [2, 5]: < 0.1 µM

SMILES: Cc1ccnc(Nc2cccc(-c3cnc(CCCCC(N)=O)s3)n2)c1 [Compound A-71, 5-{5-[6-(4-methylpyridin-2-ylamino)pyridin-2-yl]thiazol-2-yl}pentanamide]
- IC50 [1, 3]: 0.1 to 1 µM
- IC50 [2, 4]: < 0.1 µM

SMILES: CC(=O)c1sc(-c2cccc(Nc3cc(C)ccn3)n2)cc1C [Compound B-40]
- IC50 [1, 6]: > 1 µM
- IC50 [2, 7]: 0.1 to 1 µM

SMILES: Cc1ccnc(Nc2cccc(-c3cnc(CN4CC(=O)NC(=O)C4)s3)n2)c1 [Compound A-383, 4-{5-[6-(4-methylpyridin-2-ylamino)pyridin-2-yl]thiazol-2-ylmethyl}piperazine-2,6-dione]
- IC50 ([1]; Tables 1-x, compounds A): 0.1 to 1 µM
- IC50 [2, 5]: < 0.1 µM

SMILES: Cc1ccnc(Nc2cccc(-c3cnc(N4CCN(C)CC4)s3)n2)c1 [Compound A-432, N-{6-[2-(4-methylpiperazin-1-yl)thiazol-5-yl]pyridin-2-yl}-N-(4-methylpyridin-2-yl)amine]
- IC50 ([1]; Tables 1-x, compounds A): 0.1 to 1 µM
- IC50 [2, 5]: < 0.1 µM

SMILES: CCC(=O)c1ccc(-c2cccc(Nc3cc(C)ccn3)n2)s1 [Compound B-48]
- IC50 [1, 6]: > 1 µM
- IC50 [2, 7]: 0.1 to 1 µM

SMILES: COC(=O)c1sc(-c2cccc(Nc3cc(C)ccn3)n2)cc1C [Compound B-36]
- IC50 [1, 6]: > 1 µM
- IC50 [2, 7]: 0.1 to 1 µM

SMILES: CC(=O)NC[C@H]1CC[C@H](c2ncc(-c3cccc(Nc4cc(C)ccn4)n3)s2)CC1 [Compound A-228, N-(trans-4-{5-[6-(4-methylpyridin-2-ylamino)pyridin-2-yl]thiazol-2-yl}cyclohexylmethyl)acetamide]
- IC50 [1, 3]: 0.1 to 1 µM
- IC50 [2, 4]: < 0.1 µM

SMILES: Cc1ccnc(Nc2cccc(-c3cnc(CNC(=O)c4c[nH]cn4)s3)n2)c1 [Compound A-396]
- IC50 ([1]; Tables 1-x, compounds A): > 1 µM
- IC50 [2, 5]: 0.1 to 1 µM

SMILES: Cc1ccnc(Nc2cccc(-c3cnc(COCC(=O)N4CCN(C)C(=O)C4)s3)n2)c1 [Compound A-388]
- IC50 ([1]; Tables 1-x, compounds A): > 1 µM
- IC50 [2, 5]: > 1 µM

SMILES: CC(=O)NCC1CCN(c2ncc(-c3cccc(Nc4cc(C)ccn4)n3)s2)CC1 [Compound A-487, N-(1-{5-[6-(4-methylpyridin-2-ylamino)pyridin-2-yl]thiazol-2-yl}piperidin-4-ylmethyl)acetamide]
- IC50 ([1]; Tables 1-x, compounds A): 0.1 to 1 µM
- IC50 [2, 5]: < 0.1 µM

SMILES: Cc1ccnc(Nc2cccc(-c3cnc(CCC4CCC(=O)CC4)s3)n2)c1 [Compound A-172, 4-(2-{5-[6-(4-methylpyridin-2-ylamino)pyridin-2-yl]thiazol-2-yl}ethyl)cyclohexanone]
- IC50 [1, 3]: 0.1 to 1 µM
- IC50 [2, 4]: < 0.1 µM
